From US10604555B2, “GIP derivatives and uses thereof” (priority 2018, dated 2020)
pEC50: −log10 of the molar value. *1 amine or outer side, *2 acyl side, *3 side chain or, on linkers, in order; H or OH if unused. Where a SMILES comes first, the peptide text is derived from it. Side-chain parts run from the residue outwards. [ ]: non-standard residue; d: D form. The star is where a group is joined. C18 diacid = O=C(O)CCCCCCCCCCCCCCCCC(=O)*; γGlu = O=C(O)[C@H](CCC(=O)[*:2])N[*:1]; Nle = CCCC[C@H](N)C(=O)O; Aib = CC(C)(N)C(=O)O

Each molecule was assayed against T1, human GIP receptor (Homo sapiens, UniProt P48546) (assay: In vitro potency (CRE luciferase; whole cells), BHK CRE luc2P hGIPR). Settings: 0.2% HSA.
T1 construct: expressed in transfected cells; host or cells: BHK (parent line BHKTS13), BHK CRE luc2P hGIPR clone #5
T1 sequence (P48546 22-466): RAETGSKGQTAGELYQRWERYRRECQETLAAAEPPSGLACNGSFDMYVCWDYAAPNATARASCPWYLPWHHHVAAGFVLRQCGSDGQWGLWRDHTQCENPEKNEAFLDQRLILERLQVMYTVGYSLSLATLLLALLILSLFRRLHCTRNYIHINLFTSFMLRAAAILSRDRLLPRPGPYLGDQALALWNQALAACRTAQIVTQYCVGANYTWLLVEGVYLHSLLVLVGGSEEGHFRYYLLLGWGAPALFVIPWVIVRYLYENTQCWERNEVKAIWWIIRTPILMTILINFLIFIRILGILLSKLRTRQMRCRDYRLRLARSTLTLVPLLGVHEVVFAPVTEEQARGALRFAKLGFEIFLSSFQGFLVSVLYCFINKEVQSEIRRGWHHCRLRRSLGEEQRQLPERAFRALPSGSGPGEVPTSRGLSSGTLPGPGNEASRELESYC
Assay type: cell-based
Protocol: In Vitro Potency (CRE Luciferase; Whole Cells)
The in vitro potency is the measure of human GIP, GLP-1 or glucagon receptor activation, respectively, in a whole cell assay.
In vitro potency was determined by measuring the response of the human GIP, GLP-1 or glucagon receptor in a reporter gene assay in individual cell lines. […] When the respective receptor is activated it results in the production of cAMP, which in turn results in the luciferase protein being expressed. When assay incubation is completed the luciferase substrate (luciferin) is added and the enzyme converts luciferin to oxyluciferin to produce bioluminescence. The luminescence is measured as the readout for the assay.
The cells were derived from a clone containing the CRE luciferase element and were established by further transfection with the respective receptor to obtain the current clone.
The cells were cultured at 5% CO2 in Cell Culture Medium. They were aliquoted and stored in liquid nitrogen. The cells were kept in passage and were seeded out the day before each assay.
The Assay Buffer consisted of 1% ovalbumin and 0.1% Pluronic F-68 in Assay Medium with the addition of human serum albumin at twice the indicated concentrations.
1) Cells were plated at 5000 cells/well and incubated overnight.
2) Cells were washed three times in PBS.
3) Assay Medium (50 μl aliquot) with or without serum albumin was added to each well in the assay plate.
4) Stocks of the test compounds and reference compounds were diluted to a concentration of 0.2 μM in Assay Buffer. […] 8) The cells were washed three times with PBS plus some liquid in each well. 9) A 100 μl aliquot of steadylite plus reagent was added to each well of the assay plate (reagent was light sensitive). 10) Each assay plate was covered with aluminum foil to protect it from light and shaken for 30 min at room temperature. 11) Each assay plate was read in a microtiter plate reader. Calculations and Results
The data from the microtiter plate reader was transferred to GraphPad Prism software. The software performs a non-linear regression (log(agonist) vs response).
A minimum of two replicates was measured for each sample. The reported values are averages of the replicates.
`CCCC[C@H](NC(=O)[C@H](C)NC(=O)[C@@H](NC(=O)[C@H](CO)NC(=O)[C@H](Cc1ccc(O)cc1)NC(=O)[C@H](CC(=O)O)NC(=O)[C@H](CO)NC(=O)[C@@H](NC(=O)[C@H](Cc1ccccc1)NC(=O)[C@@H](NC(=O)CNC(=O)[C@H](CCC(=O)O)NC(=O)C(C)(C)NC(=O)[C@@H](N)Cc1ccc(O)cc1)[C@@H](C)O)[C@@H](C)CC)[C@@H](C)CC)C(=O)N[C@@H](CC(=O)O)C(=O)N[C@@H](CCCCN)C(=O)N[C@H](C(=O)N[C@@H](Cc1c[nH]cn1)C(=O)N[C@@H](CCC(N)=O)C(=O)N[C@@H](CCC(N)=O)C(=O)N[C@@H](CC(=O)O)C(=O)N[C@@H](Cc1ccccc1)C(=O)N[C@H](C(=O)N[C@@H](CCCCNC(=O)CC[C@H](NC(=O)CC[C@H](NC(=O)CC[C@H](NC(=O)CCCCCCCCCCCCCCCCC(=O)O)C(=O)O)C(=O)O)C(=O)O)C(=O)N[C@@H](Cc1c[nH]c2ccccc12)C(=O)N[C@@H](CC(C)C)C(=O)N[C@@H](CC(C)C)C(=O)N[C@@H](C)C(=O)N[C@@H](CCC(N)=O)C(=O)N[C@@H](CCCCN)C(=O)NCC(=O)O)C(C)C)[C@@H](C)CC` [Compound 2, N{Epsilon-24}-[(4S)-4-carboxy-4-[[(4S)-4-carboxy-4-[[(4S)-4-carboxy-4-(17-carboxyheptadecanoylamino)butanoyl]amino]butanoyl]amino]butanoyl]-[Aib2,Nle14,Lys24]-hGIP(1-31)] (H-Y[Aib]EGTFISDYSIA[Nle]DKIHQQDFVK([γGlu-γGlu-γGlu-C18 diacid])WLLAQKG-OH) was tested, and the pEC50 was 10.30. `CCCC[C@H](NC(=O)[C@H](C)NC(=O)[C@@H](NC(=O)[C@H](CO)NC(=O)[C@H](Cc1ccc(O)cc1)NC(=O)[C@H](CC(=O)O)NC(=O)[C@H](CO)NC(=O)[C@@H](NC(=O)[C@H](Cc1ccccc1)NC(=O)[C@@H](NC(=O)CNC(=O)[C@H](CCC(=O)O)NC(=O)C(C)(C)NC(=O)[C@@H](N)Cc1ccc(O)cc1)[C@@H](C)O)[C@@H](C)CC)[C@@H](C)CC)C(=O)N[C@@H](CC(=O)O)C(=O)N[C@@H](CCCCN)C(=O)N[C@H](C(=O)N[C@@H](CCCNC(=N)N)C(=O)N[C@@H](CCC(N)=O)C(=O)N[C@@H](CCC(=O)O)C(=O)N[C@@H](CC(=O)O)C(=O)N[C@@H](Cc1ccccc1)C(=O)N[C@H](C(=O)N[C@@H](CCCCNC(=O)CC[C@H](NC(=O)CC[C@H](NC(=O)CC[C@H](NC(=O)CCCCCCCCCCCCCCCCC(=O)O)C(=O)O)C(=O)O)C(=O)O)C(=O)N[C@@H](Cc1c[nH]c2ccccc12)C(=O)N[C@@H](CC(C)C)C(=O)N[C@@H](CC(C)C)C(=O)N[C@@H](C)C(=O)N[C@@H](CCC(N)=O)C(=O)N[C@@H](CCCCN)C(=O)NCC(=O)O)C(C)C)[C@@H](C)CC` [Compound 9, N{Epsilon-24}-[(4S)-4-carboxy-4-[[(4S)-4-carboxy-4-[[(4S)-4-carboxy-4-(17-carboxyheptadecanoylamino)butanoyl]amino]butanoyl]amino]butanoyl]-[Aib2,Nle14,Arg18,Glu20,Lys24]-hGIP(1-31)] (H-Y[Aib]EGTFISDYSIA[Nle]DKIRQEDFVK([γGlu-γGlu-γGlu-C18 diacid])WLLAQKG-OH; N-terminus and C-terminus assumed) was tested, and the pEC50 was 10.20. Molecule `CCCC[C@H](NC(=O)[C@H](C)NC(=O)[C@@H](NC(=O)[C@H](CO)NC(=O)[C@H](Cc1ccc(O)cc1)NC(=O)[C@H](CC(=O)O)NC(=O)[C@H](CO)NC(=O)[C@@H](NC(=O)[C@H](Cc1ccccc1)NC(=O)[C@@H](NC(=O)CNC(=O)[C@H](CCC(=O)O)NC(=O)C(C)(C)NC(=O)[C@@H](N)Cc1ccc(O)cc1)[C@@H](C)O)[C@@H](C)CC)[C@@H](C)CC)C(=O)N[C@@H](CC(=O)O)C(=O)N[C@@H](C)C(=O)N[C@H](C(=O)N[C@@H](CCCNC(=N)N)C(=O)N[C@@H](CCC(N)=O)C(=O)N[C@@H](CCC(N)=O)C(=O)N[C@@H](CC(=O)O)C(=O)N[C@@H](Cc1ccccc1)C(=O)N[C@H](C(=O)N[C@@H](CCCCNC(=O)CC[C@H](NC(=O)CC[C@H](NC(=O)CC[C@H](NC(=O)CCCCCCCCCCCCCCCCC(=O)O)C(=O)O)C(=O)O)C(=O)O)C(=O)N[C@@H](Cc1c[nH]c2ccccc12)C(=O)N[C@@H](CC(C)C)C(=O)N[C@@H](CC(C)C)C(=O)N[C@@H](C)C(=O)N[C@@H](CCC(N)=O)C(=O)N[C@@H](CCCCN)C(=O)NCC(=O)O)C(C)C)[C@@H](C)CC` [Compound 13, N{Epsilon-24}-[(4S)-4-carboxy-4-[[(4S)-4-carboxy-4-[[(4S)-4-carboxy-4-(17-carboxyheptadecanoylamino)butanoyl]amino]butanoyl]amino]butanoyl]-[Aib2,Nle14,Ala16,Arg18,Lys24]-hGIP(1-31)] (H-Y[Aib]EGTFISDYSIA[Nle]DAIRQQDFVK([γGlu-γGlu-γGlu-C18 diacid])WLLAQKG-OH; N-terminus and C-terminus assumed) has a pEC50 of 10.14. Molecule `CCCC[C@H](NC(=O)[C@H](C)NC(=O)[C@@H](NC(=O)[C@H](CO)NC(=O)[C@H](Cc1ccc(O)cc1)NC(=O)[C@H](CC(=O)O)NC(=O)[C@H](CO)NC(=O)[C@@H](NC(=O)[C@H](Cc1ccccc1)NC(=O)[C@@H](NC(=O)CNC(=O)[C@H](CCC(=O)O)NC(=O)[C@H](C)NC(=O)[C@@H](Cc1ccc(O)cc1)NC(C)=O)[C@@H](C)O)[C@@H](C)CC)[C@@H](C)CC)C(=O)N[C@@H](CC(=O)O)C(=O)N[C@@H](CCCCN)C(=O)N[C@H](C(=O)N[C@@H](CCCNC(=N)N)C(=O)N[C@@H](CCC(N)=O)C(=O)N[C@@H](CCC(=O)O)C(=O)N[C@@H](CC(=O)O)C(=O)N[C@@H](Cc1ccccc1)C(=O)N[C@H](C(=O)N[C@@H](CCCCNC(=O)COCCOCCNC(=O)COCCOCCNC(=O)CC[C@H](NC(=O)CCCCCCCCCCCCCCCCC(=O)O)C(=O)O)C(=O)N[C@@H](Cc1c[nH]c2ccccc12)C(=O)N[C@@H](CC(C)C)C(=O)N[C@@H](CC(C)C)C(=O)N[C@@H](C)C(=O)N[C@@H](CCC(N)=O)C(=O)N[C@@H](CCCCN)C(=O)NCC(=O)O)C(C)C)[C@@H](C)CC` [Compound 16, N{1}-acetyl,N{Epsilon-24}-[2-[2-[2-[[2-[2-[2-[[(4S)-4-carboxy-4-(17-carboxy-heptadecanoylamino)butanoyl]amino]ethoxy]ethoxy]acetyl]amino]ethoxy]ethoxy]acetyl]-[D-Tyr1,Nle14,Arg18,Glu20,Lys24]-hGIP(1-31)] has a pEC50 of 10.60. `CCCC[C@H](NC(=O)[C@H](C)NC(=O)[C@@H](NC(=O)[C@H](CO)NC(=O)[C@H](Cc1ccc(O)cc1)NC(=O)[C@H](CC(=O)O)NC(=O)[C@H](CO)NC(=O)[C@@H](NC(=O)[C@H](Cc1ccccc1)NC(=O)[C@@H](NC(=O)CNC(=O)[C@H](CCC(=O)O)NC(=O)[C@H](C)NC(=O)[C@H](Cc1ccc(O)cc1)NC(C)=O)[C@@H](C)O)[C@@H](C)CC)[C@@H](C)CC)C(=O)N[C@@H](CC(=O)O)C(=O)N[C@@H](CCCCN)C(=O)N[C@H](C(=O)N[C@@H](CCCNC(=N)N)C(=O)N[C@@H](CCC(N)=O)C(=O)N[C@@H](CCC(N)=O)C(=O)N[C@@H](CC(=O)O)C(=O)N[C@@H](Cc1ccccc1)C(=O)N[C@H](C(=O)N[C@@H](CCCCNC(=O)CC[C@H](NC(=O)CC[C@H](NC(=O)CC[C@H](NC(=O)CCCCCCCCCCCCCCCCC(=O)O)C(=O)O)C(=O)O)C(=O)O)C(=O)N[C@@H](Cc1c[nH]c2ccccc12)C(=O)N[C@@H](CC(C)C)C(=O)N[C@@H](CC(C)C)C(=O)N[C@@H](C)C(=O)N[C@@H](CCC(N)=O)C(=O)N[C@@H](CCCCN)C(=O)NCC(=O)O)C(C)C)[C@@H](C)CC` [Compound 18, N{1}-acetyl,N{Epsilon-24}-[(4S)-4-carboxy-4-[[(4S)-4-carboxy-4-[[(4S)-4-carboxy-4-(17-carboxyheptadecanoylamino)butanoyl]amino]butanoyl]amino]butanoyl]-[Nle14,Arg18,Lys24]-hGIP(1-31)] showed a pEC50 of 9.26.
